Counter-ions that a name gives are not always drawn. Like-named read-outs stand apart in the source and are kept apart here.
What was measured:
cancer cells = test: Cytotoxicity (IC50); format: cell-based
CD98 = test: Nutrient transporter (CD98) down-regulation; format: cell-based; conditions: for activity in downregulation tests: compared to hydroxy pyrrolidine ketone progenitors 20, 21, 23 and 24
[1] = Racemization/epimerization, deuterium incorporation and cyclization in protic solvents; format: physicochemical; conditions: for time to complete incorporation of deuterium at C-2: D2O, room temperature; for racemization / epimerization after N-Boc deprotection: dissolved in protic solvents such as water and MeOH, gives 1:1 mixture of enantiomers or epimers
Method: In the presence of D2O at room temperature, deuterium was incorporated at C-2 confirming a fast enolization followed by β-elimination and ring closure. […] The incorporation of deuterium is complete in 30 min at pH=10, and in 3 hours at pH=7.
It was therefore decided to further investigate this new structural analog and we prepared the bicyclic enantiopure pyrrolizidine 17 bearing the aryloctyl appendage on C-3, in analogy with our lead compound 3 as well as the monocyclic variant 18, to check the effect of the substituent position and the nature of the azacycles (FIG. 7).

vacuolation = test: Vacuolation score; format: cell-based; conditions: for activity in vacuolation tests: compared to hydroxy pyrrolidine ketone progenitors 20, 21, 23 and 24
[2] = at concentration near IC50 / where it kills 50% of cells

Compound	IC50 (cancer cells) [µM]	inhibition at 2.5 µM (CD98; 2.5 μM) [%]	inhibition at 10 µM (CD98; 10 μM) [%]	Vacuolation score (vacuolation; 2.5 μM)	Vacuolation score (vacuolation; 10 μM)	inhibition at 40 µM (CD98; 40 μM) [%]	further results
CCCCCCCCc1ccc(C(=O)C[C@H]2C[C@H](CO)CN2)cc1.Cl (mixture of isomers) [Compound 12, 2-((2R,4S)-4-(Hydroxymethyl)pyrrolidin-2-yl)-1-(4-octylphenyl)ethan-1-one hydrochloride]	2	44	50	–	–	–	time to complete incorporation of deuterium at C-2 ([1]; pH=7): 3 h; time to complete incorporation of deuterium at C-2 ([1]; pH=10): 0.5 h; racemization / epimerization after N-Boc deprotection [1]: prone to racemization and epimerization; stability to epimerization ([1]; pH≤3 in H2O): stable only in very acidic conditions
CCCCCCCCc1ccc(C(C[C@@H]2CCCN2)OC)cc1.Cl (single isomer, unassigned) [Compound 10, (2S)-2-(2-Methoxy-2-(4-octylphenyl)ethyl)pyrrolidine hydrochloride]	–	–	–	0	–	–	–
CCCCCCCCc1ccc(C(C[C@@H]2CCCN2)OC)cc1.Cl (single isomer, unassigned) [Compound 10, hydrochloride]	3	15	58	–	–	–	–
CCCCCCCCc1ccc([C@H]2CCN[C@@H]2CO)cc1.Cl [Compound 3, reference compound]	2.1	–	–	–	–	–	% CD98 down-regulation (CD98; 2.5 μM): 42%; % CD98 down-regulation (CD98; 10 μM): 66%
CCCCCCCCc1ccc(C(=O)C[C@@H]2CCCN2)cc1.Cl [Compound 8, (S)-1-(4-Octylphenyl)-2-(pyrrolidin-2-yl)ethan-1-one hydrochloride]	2.5	78	57	–	–	–	racemization / epimerization after N-Boc deprotection [1]: prone to racemization and epimerization
CCCCCCCCc1ccc(CC[C@@H]2CCCN2)cc1 [Compound 9, (R)-2-(4-Octylphenethyl)pyrrolidine hydrochloride]	2.8	41	63	–	–	–	–
CCCCCCCCc1ccc(C(=O)C[C@@H]2C[C@@H](O)CN2)cc1.Cl [Compound 11, (2S,4R)-4-Hydroxy-2-(2-(4-octylphenyl)-2-oxoethyl)pyrrolidin-1-ium chloride]	2.1	22	46	–	–	–	racemization / epimerization after N-Boc deprotection [1]: prone to racemization and epimerization
CCCCCCCCc1ccc(C(=O)CC[C@H]2C[C@H](CO)CN2)cc1.Cl [Compound 13, 3-(2S,4S)-4-(Hydroxymethyl)pyrrolidin-2-yl)-1-(4-octylphenyl)propan-1-one hydrochloride]	4	–	–	–	–	–	–
CCCCCCCCc1ccc(C(=O)CC[C@H]2C[C@H](CO)CN2)cc1.Cl [Compound 13]	–	–	–	0	–	–	% CD98 down-regulation (CD98; 2.5 μM): 8%; % CD98 down-regulation (CD98; 10 μM): 46%
CCCCCCCCc1ccc([C@@H]2CCC3C[C@H](CO)CN32)cc1.Cl (stereo partly drawn) [Compound 14, ((2S,5S)-5-(4-Octylphenyl)hexahydro-1H-pyrrolizin-2-yl)methanol hydrochloride]	12.4	0	32	0	0	68	IC50 (cancer cells; hydrochloride): 12.2 µM
CCCCCCCCc1ccc(C(=O)CC[C@@H]2C[C@@H](O)CN2)cc1 [Compound 15, (2R,4R)-4-Hydroxy-2-(3-(4-octylphenyl)-3-oxopropyl)pyrrolidin-1-ium chloride]	2.1	15	52	–	–	–	–
CCCCCCCCc1ccc(C[C@@H]2C[C@@H](O)CN2)cc1 [Compound 16, (3R,5R)-5-(4-Octylbenzyl)pyrrolidin-3-ol]	2.2	40	63	–	–	–	–
CCCCCCCCc1ccc(C(=O)[C@@H]2CCCN2)cc1.Cl [Compound 19, (S)-2-(4-Octylbenzoyl)pyrrolidin-1-ium chloride]	–	-21	-4	0	0	33	–
CCCCCCCCc1ccc(C(=O)[C@@H]2C[C@@H](O)CN2)cc1.Cl [Compound 20, (2S,4R)-4-Hydroxy-2-(4-octylbenzoyl)pyrrolidin-1-ium chloride]	28.1	2	9	0	–	48	–
CCCCCCCCc1ccc(C(=O)[C@H]2C[C@H](O)CN2)cc1.Cl [Compound 21, (2R,4S)-4-Hydroxy-2-(4-octylbenzoyl)pyrrolidin-1-ium chloride]	15.3	12	51	0	–	41	vacuolation (in words) (vacuolation; 10 μM): reached maximum vacuolation
CCCCCCCCc1ccc(C(=O)[C@H]2C[C@H](CO)CN2)cc1.Cl [Compound 22, ((2R,4S)-4-(Hydroxymethyl)pyrrolidin-2-yl)(4-octylphenyl)methanone hydrochloride]	19.6	0	19	0	0	61	–
CCCCCCCCc1ccc(CC(=O)[C@@H]2C[C@@H](O)CN2)cc1.Cl [Compound 23, (2S,4R)-4-Hydroxy-2-(2-(4-octylphenyl)acetyl)pyrrolidin-1-ium chloride]	18.6	13	23	0	0	59	–
CCCCCCCCc1ccc(CC(=O)[C@H]2C[C@H](O)CN2)cc1.Cl [Compound 24, (2R,4S)-4-Hydroxy-2-(2-(4-octylphenyl)acetyl)pyrrolidin-1-ium chloride]	17.1	11	16	0	0	54	–
CCCCCCCCc1ccc(CC(O)[C@@H]2C[C@@H](O)CN2)cc1 (stereo partly drawn) [Compound 25, (2S,4R)-4-Hydroxy-2-(1-hydroxy-2-(4-octylphenyl)ethyl)pyrrolidin-1-ium chloride]	3	19	62	–	–	–	–
CCCCCCCCc1ccc(CC(O)[C@H]2C[C@H](O)CN2)cc1.Cl (stereo partly drawn) [Compound 26, (2R,4S)-4-Hydroxy-2-(1-hydroxy-2-(4-octylphenyl)ethyl)pyrrolidin-1-ium chloride]	1.8	9	62	0	–	–	vacuolation (vacuolation; [2]): does not down-regulate nutrient transporter proteins or vacuolate; nutrient transporter down-regulation (CD98; [2]): does not down-regulate nutrient transporter proteins
CCCCCCCCc1ccc(C(=O)[C@@H]2C[C@@H](OP(=O)(O)O)CN2)cc1.Cl [Compound 29, (2S,4R)-2-(4-Octylbenzoyl)-4-(phosphonooxy)pyrrolidin-1-ium chloride]	12.9	–	–	0	0	–	Vacuolation score (vacuolation; 40 μM): 0; activity in vacuolation tests (vacuolation): totally inactive; % CD98 down-regulation (CD98; 10 μM): 3%; % CD98 down-regulation (CD98; 40 μM): −8%; activity in downregulation tests (CD98): totally inactive
CCCCCCCCc1ccc(C(=O)[C@@H]2C[C@@H](OP(=O)(O)O)CN2)cc1.Cl [Compound 30, (2S,4R)-2-(4-Octylbenzoyl)-4-(phosphonooxy)pyrrolidin-1-ium chloride]	12.8	–	–	0	0	–	Vacuolation score (vacuolation; 40 μM): 0; activity in vacuolation tests (vacuolation): totally inactive; % CD98 down-regulation (CD98; 10 μM): −9%; % CD98 down-regulation (CD98; 40 μM): −0%; activity in downregulation tests (CD98): totally inactive
CCCCCCCCc1ccc(CC(=O)[C@@H]2C[C@@H](OP(=O)(O)O)CN2)cc1.Cl [Compound 31, (2S,4R)-2-(2-(4-Octylphenyl)acetyl)-4-(phosphonooxy)pyrrolidin-1-ium chloride]	25	–	3	–	0	0	Vacuolation score (vacuolation; 40 μM): 0; activity in vacuolation tests (vacuolation): totally inactive; activity in downregulation tests (CD98): totally inactive
CCCCCCCCc1ccc(CC(=O)[C@H]2C[C@H](OP(=O)(O)O)CN2)cc1.Cl [Compound 32, (2R,4S)-2-(2-(4-Octylphenyl)acetyl)-4-(phosphonooxy)pyrrolidin-1-ium chloride]	25.3	–	5	–	0	8	Vacuolation score (vacuolation; 40 μM): 0; activity in vacuolation tests (vacuolation): totally inactive; activity in downregulation tests (CD98): totally inactive

From patent US20210261583A1, “Synthetic Cytotoxic Molecules, Drugs, Methods of Their Synthesis and Methods of Treatment” (The Regents of the University of California, priority 2018, published 2021)
